In patent US12157745B2, “Heterocyclic systems and pharmaceutical compositions thereof” (University of Sharjah, priority 2018, dated 2024):

Legend:
MCF-7 cells = assay: Cell cycle analysis (propidium iodide, flow cytometry); format: cell-based; conditions: after 16, 24, 48, and 72 hours of treatment
Description: Apoptosis studies: The molecular effect of compound it was evaluated by investigating its apoptotic (FIG. 5) and cell cycle arresting potentials (FIGS. 6A and 6B). Compound it arrests the cells at G0/G1 phase in MCF-7 cells (>15%) with respect to control cells after 16, 24, 48, and 72 hours of treatment.
Cell cycle arresting potentials of compound it were analyzed by an already established protocol with minor modifications. In brief, 3×10^6 cells of MCF-7, SKBR3, and HCT116 were seeded and incubated overnight in a T75 cm^2 flask before treating with IC50 dose of compound it for […]. The cells which were devoid of any treatments served as controls for each group. After respective treatment hours, the cells were washed two times with PBS and fixed with ice cold ethanol (70%) overnight. The cells were then washed two times with cold PBS and 1×10^6 cells were then counted and incubated with 1 ml RNAase (100 μg/mL) for 30 min at 37° C. The cell pellet was further added with 200 μl of propidium iodide (50 μg/mL) and immediately analyzed by a flow cytometer (BD, Accuri C6).

p53 = assay: Western blot, p53 expression; format: cell-based; conditions: breast cancer cells
Description: (§1) The MCF-7, SKBR3 and HCT116 total cell lysate were prepared after 24 hours of treatment with compound it at IC50 and DIC50 doses by using 1× laemmli buffer. Total protein concentration was then estimated for each sample and 15-30 μg of protein lysate were loaded equally on 12% SDS-PAGE gel in order to detect various proteins expression levels. In short, the membrane was incubated with different primary antibodies (as mentioned in above section) (1:1000) overnight after blocking with 5% non-fat milk solution for 1 hour. The membrane was then re-probed with respective mouse/rabbit secondary antibodies (1:2000) for 1 h, and later developed by enhanced chemiluminescence (ECL) method by using a Chemidoc MP (BioRad, Germany).

H2AX = assay: DNA damage study, H2AX phosphorylation (western blot); format: cell-based; conditions: SKBr3 cells; IC50 and Double IC50 treatments
Source text: DNA damage studies: One of the main properties of any efficient chemotherapeutic drug is to induce DNA damage in tumor cells either directly or indirectly by generating harmful DNA crosslinks, which can lead to apoptosis and impact the cell by disrupting gene function and/or impairing transcription, DNA replication, and cell proliferation. To gain additional knowledge of compound it's anticancer properties, its mechanism of action to induce DNA damage was studied in breast and colon cancer cells (FIG. 8). One of the critical post-translational modifications of chromatin is phosphorylation of multiple proteins involved in DNA damage pathway and one of the earliest events during DNA double strand break is the phosphorylation of Ser139 on the specialized histone called H2AX, which is then referred to as γ-H2AX.
as §1, with “The membrane was then re-probed with respective mouse/rabbit secondary antibodies (1:2000) for 1 h, and later developed by enhanced chemiluminescence (ECL) method by using a Chemidoc MP (BioRad, Germany).” left out

p-Chk2 = assay: DNA damage study, p-Chk2 expression (western blot); format: cell-based
Description: However, recruitment of phosphatidylinositol-3-kinase (PI3K) family members to the site of DNA damage is the first step of DNA damage response mechanisms and the phosphorylation of ataxia telangiectasia-mutated (ATM) or ATM-Rad3-related (ATR) kinases often follows. […] Overall, compound it was able to induce DNA damage in an ATR-Chk2 dependent pathway in aggressive breast cancer phenotypes.
as §1

cytosol aminopeptidase = target: T1, cytosol aminopeptidase (Homo sapiens, UniProt P28838); assay: DARTS proteomic assay; format: binding
T1 construct: HEK293T cells were lysed using M-PER; endogenous in cells; host or cells: HEK293T lysate
Source text: (§2) The unique properties of compound it prompted an in-depth analysis to explore its potential novel targets. […] Mammalian thioredoxin reductases (TrxRs) are selenocysteine-containing homodimericflavin enzymes that catalyze the NADPH-dependent reduction of oxidized thioredoxins. […] Therefore, inhibiting this enzyme should form the foundation of a novel anticancer lead drug candidate. Many drug companies around the world are trying to design drugs that target this enzyme, however, until now there is no clinical anti-cancer drug that specifically targets TrxR although some drugs have been reported to inhibit TrxR to varying extents. […] One of the hurdles in developing a successful TrxR inhibitor is its cross reactions with thiols present inside the cells. […] Moreover, according to many reports, inhibiting excessive TrxR levels will also […] of Parkinson's disease as well as Alzheimer's disease. On the other hand, increased aminopeptidases are typically observed in many cancer tissues and play a key role in tumor cell proliferation, angiogenesis, and tumor invasiveness by regulating extracellular matrix degradation and cell signaling and recognition. […] A DARTS assay was used to assess the binding of compound 1t. HEK293T cells were lysed using M-PER (Thermo Scientific, Inc.) supplemented with protease and phosphatase inhibitors (Lysis buffer). 4.7 mg/mL of protein and TNC buffer (10 mM Tris, 140 mMNaCl, 5 mM CaCl2)) was added, compound it was diluted in DMSO to 3 different concentrations (0.01 μM, 0.1 μM, 1 μM) and incubated for one hour at room temperature. Trypsin (Promega) was added and incubated for 3 hours at 37° C. Thereafter, M-PER lysis buffer was added and the samples were concentrated with Microcon 10K centrifugal filters. The proteins were identified by gel electrophoresis liquid chromatography mass spectroscopy ([…]).

thioredoxin reductase = target: T2, thioredoxin reductase (Homo sapiens, UniProt Q16881); assay: DARTS proteomic assay; format: binding; conditions: FIG. 9
T2 construct: HEK293T cells were lysed using M-PER; endogenous in cells; host or cells: HEK293T lysate
Source text: as §2

glutathione reductase = target: T3, glutathione reductase (Homo sapiens, UniProt P00390); assay: DARTS proteomic assay; format: binding; conditions: dose-dependent manner, FIG. 12
T3 construct: HEK293T cells were lysed using M-PER; endogenous in cells; host or cells: HEK293T lysate
Description: The unique properties of compound it prompted an in-depth analysis to explore its potential novel targets.
A DARTS assay was used to assess the binding of compound 1t. HEK293T cells were lysed using M-PER (Thermo Scientific, Inc.) supplemented with protease and phosphatase inhibitors (Lysis buffer). 4.7 mg/mL of protein and TNC buffer (10 mM Tris, 140 mMNaCl, 5 mM CaCl2)) was added, compound it was diluted in DMSO to 3 different concentrations (0.01 μM, 0.1 μM, 1 μM) and incubated for one hour at room temperature. Trypsin (Promega) was added and incubated for 3 hours at 37° C. Thereafter, M-PER lysis buffer was added and the samples were concentrated with Microcon 10K centrifugal filters. The proteins were identified by gel electrophoresis liquid chromatography mass spectroscopy (GelLCMS).

T2 sequence (Q16881 151-649 limits assumed): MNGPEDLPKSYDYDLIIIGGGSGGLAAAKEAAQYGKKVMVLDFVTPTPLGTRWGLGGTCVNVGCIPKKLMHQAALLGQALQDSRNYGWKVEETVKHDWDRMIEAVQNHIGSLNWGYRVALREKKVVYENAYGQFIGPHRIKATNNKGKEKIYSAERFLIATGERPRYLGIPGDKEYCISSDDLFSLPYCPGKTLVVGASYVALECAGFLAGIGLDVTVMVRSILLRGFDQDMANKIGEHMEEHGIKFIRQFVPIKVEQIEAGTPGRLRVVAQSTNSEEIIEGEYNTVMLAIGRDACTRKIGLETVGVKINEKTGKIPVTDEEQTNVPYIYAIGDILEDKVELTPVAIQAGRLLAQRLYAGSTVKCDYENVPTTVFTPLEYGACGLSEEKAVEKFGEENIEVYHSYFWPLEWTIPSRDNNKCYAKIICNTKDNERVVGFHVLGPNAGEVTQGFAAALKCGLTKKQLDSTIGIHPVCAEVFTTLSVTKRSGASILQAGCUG
T3 sequence (P00390 44-522): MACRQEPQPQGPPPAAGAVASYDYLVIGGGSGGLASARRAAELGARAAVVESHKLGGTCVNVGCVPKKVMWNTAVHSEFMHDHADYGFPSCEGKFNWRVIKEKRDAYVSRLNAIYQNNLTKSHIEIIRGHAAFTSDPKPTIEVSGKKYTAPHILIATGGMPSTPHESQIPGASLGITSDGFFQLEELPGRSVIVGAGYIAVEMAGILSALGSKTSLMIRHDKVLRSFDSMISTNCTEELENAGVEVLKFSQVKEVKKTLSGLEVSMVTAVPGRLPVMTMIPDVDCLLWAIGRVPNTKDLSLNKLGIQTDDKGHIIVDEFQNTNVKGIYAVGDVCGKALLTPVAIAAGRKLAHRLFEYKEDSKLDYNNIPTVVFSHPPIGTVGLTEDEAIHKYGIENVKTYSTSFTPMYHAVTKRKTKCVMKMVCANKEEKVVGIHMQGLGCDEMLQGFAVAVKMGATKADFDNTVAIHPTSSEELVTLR
T1 sequence (P28838 whole entry): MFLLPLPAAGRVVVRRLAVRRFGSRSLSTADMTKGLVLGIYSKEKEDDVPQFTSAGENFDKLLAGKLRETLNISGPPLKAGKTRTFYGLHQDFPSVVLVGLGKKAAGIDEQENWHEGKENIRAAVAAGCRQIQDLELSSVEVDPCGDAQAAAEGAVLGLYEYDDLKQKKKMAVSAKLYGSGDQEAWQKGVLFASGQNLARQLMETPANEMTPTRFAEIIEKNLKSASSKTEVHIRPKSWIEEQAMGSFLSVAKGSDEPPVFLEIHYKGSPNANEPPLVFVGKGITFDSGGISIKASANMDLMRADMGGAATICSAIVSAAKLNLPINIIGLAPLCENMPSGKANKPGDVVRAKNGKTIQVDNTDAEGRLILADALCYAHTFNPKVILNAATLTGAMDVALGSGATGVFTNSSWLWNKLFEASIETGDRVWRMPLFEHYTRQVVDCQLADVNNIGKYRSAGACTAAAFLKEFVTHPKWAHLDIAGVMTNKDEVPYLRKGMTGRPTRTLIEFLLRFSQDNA

CC1(C)[C@H]2COc3ccc4ccccc4c3[C@H]2N=C2SC(c3ccccc3)=C(c3ccccc3)N21 [Compound 1t]
Cells arrested at G0/G1 phase with respect to control cells (MCF-7 cells): > 15% | Expression of p53 (p53): up-regulation | H2AX phosphorylation (H2AX): induced H2AX phosphorylation | Checkpoint kinase p-Chk2 expression (p-Chk2): elevated levels | Targeting of cytosolic aminopeptidase (cytosol aminopeptidase): dose-dependent manner | Concentration of highest effect on TrxR (thioredoxin reductase): 1 µM | Modulation of TrxR (thioredoxin reductase; HEK293T lysate, 0.01, 0.1, 1 μM): concentration-dependent modulation | Modulation of glutathione reductase function (glutathione reductase): modulated the functions
